Results taken from patent US4278762A, “Method for the quantitative determination of plasminogen activators” (Pentapharm AG, priority 1976, dated 1981).
Structures can show the parent of a compound that is named as a salt. Non-standard residues stand in square brackets, D forms with d. Residues, ends and D or L forms follow the SMILES beside them. *: point of attachment. Hydrocinnamoyl = O=C(CCc1ccccc1)*; dChg = N[C@@H](C(=O)O)C1CCCCC1; pNA = O=[N+]([O-])c1ccc(N*)cc1; Chg = N[C@H](C(=O)O)C1CCCCC1; Cbz = O=C(OCc1ccccc1)*; PhAc = O=C(Cc1ccccc1)*; Bz = O=C(c1ccccc1)*

These compounds were tested against T1, trypsin (Bos taurus, UniProt P00760) (assay: Kinetic constants Km and vmax of substrate hydrolysis by trypsin (Lineweaver-Burk)). Details: per NF unit.
T1 construct: b360 concerns trypsin in duodenal juice
T1 sequence (P00760 24-246): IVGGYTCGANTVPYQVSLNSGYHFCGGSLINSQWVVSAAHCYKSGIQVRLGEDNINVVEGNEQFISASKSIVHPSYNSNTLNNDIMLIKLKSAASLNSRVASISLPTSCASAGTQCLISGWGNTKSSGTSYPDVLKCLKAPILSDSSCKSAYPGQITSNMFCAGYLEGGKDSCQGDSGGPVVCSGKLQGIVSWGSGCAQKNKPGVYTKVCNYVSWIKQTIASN
Assay type: biochemical
Method: The enzyme and the substrate are mixed in a buffer solution, and the hydrolysis reaction is followed for 2 to 30 minutes. The concentration of substate [S] is varied, whereas the enzyme concentration is kept constant. If the extinction (OD=optical density) is plotted in a co-ordinate system as a function of time, a curve is obtained the tangent of which at time zero corresponds to the ideal course of the hydrolysis. By means of this tangent the initial rate of the hydrolysis can be determined.
If 1/v is plotted against (1/[S]), a Lineweaver-Burk diagram (cf. "Kurzes Lehrbuch der Biochemie" by P. KARLSON, Georg Thieme-Verlag, Stuttgart, 1967, p. 70) is obtained from which vmax and Km can be determined graphically.
For the determination of the kinetic constants Km and vmax listed in Table I aqueous dilution series of the substrates with concentrations from 0.1 to 2 μmoles/ml were used. […] The value of the quantity of p-nitroaniline formed per minute is a measure for the rate of hydrolysis at a given substrate concentration. […] The kinetic constants Km and vmax were determined from the points of intersection of the curves with the abscissa and the ordinate.
`CC(C)[C@@H](N)C(=O)NCC(=O)N[C@@H](CCCNC(=N)N)C(=O)Nc1ccc([N+](=O)[O-])cc1` [XVI] (H-[dV]-Gly-Arg-pNA) was tested, and the Vmax was 4.17 × 10^-3 μmole/min. NF.

Each compound was assayed against T2, bovine trypsin (Bos taurus, UniProt P00760) (assay: Activity of bovine trypsin at constant substrate and enzyme concentrations (Table IV)). Details: substrate concentration 2 × 10^-4 M; pH 8.4, ionic strength 0.30, 37° C., 405 nm.
T2 sequence (P00760 24-246): T1 sequence (P00760 24-246)
Assay type: biochemical
Method: The results listed in Table IV were obtained under the following experimental conditions: In a measuring vessel 1.7 ml of tris-imidazole buffer having a pH of 8.4 and an ionic strength of 0.30 were mixed at 37° C. with 0.1 ml of an aqueous trypsin solution having a concentration of 2 NF units of trypsin per ml. To the mixture 0.2 ml of a 2×10^-3 molar solution of the substrate to be tested was added. Thereafter, the quantity of p-nitroaniline released from the substrate by the action of the trypsin was determined by measuring the change in the optical density Δ OD per minute at a wave length of 405 nm.
`N=C(N)NCCCC(NC(=O)c1ccccc1)C(=O)Nc1ccc([N+](=O)[O-])cc1` (racemic) [N^α --Bz--DL--Arg--pNA . HCl, reference compound] was tested, and the “Quantity in nanomoles of p-nitroaniline enzymatically released from the substrate by 1 NF unit of trypsin in 1 minute” value was 0,45 nanomoles.
With `CC(C)[C@H](NC(=O)[C@H](Cc1ccccc1)NC(=O)c1ccccc1)C(=O)N[C@@H](CCCNC(=N)N)C(=O)Nc1ccc([N+](=O)[O-])cc1` [N^α --Bz--Phe--Val--Arg--pNA . HCl, reference compound] (Bz-Phe-Val-Arg-pNA) the “Quantity in nanomoles of p-nitroaniline enzymatically released from the substrate by 1 NF unit of trypsin in 1 minute” value was 8,4 nanomoles.
In the case of `CC(C)[C@H](N)C(=O)NCC(=O)N[C@@H](CCCNC(=N)N)C(=O)Nc1ccc([N+](=O)[O-])cc1` [Substrate II, H-Val-Gly-Arg-pNA.2HCl] (H-Val-Gly-Arg-pNA), the “Quantity in nanomoles of p-nitroaniline enzymatically released from the substrate by 1 NF unit of trypsin in 1 minute” value is reported as 10,8 nanomoles.
In the case of `CC[C@H](C)[C@H](NC(=O)c1ccccc1)C(=O)NCC(=O)N[C@@H](CCCNC(=N)N)C(=O)Nc1ccc([N+](=O)[O-])cc1` [Substrate III, N^α -Bz-Ile-Gly-Arg-pNA.HCl] (Bz-Ile-Gly-Arg-pNA), the “Quantity in nanomoles of p-nitroaniline enzymatically released from the substrate by 1 NF unit of trypsin in 1 minute” value is reported as 28.5 nmol.
`CC(C)C[C@H](NC(=O)c1ccccc1)C(=O)NCC(=O)N[C@@H](CCCNC(=N)N)C(=O)Nc1ccc([N+](=O)[O-])cc1` [Substrate IV, N^α -Bz-Leu-Gly-Arg-pNA.HCl] (Bz-Leu-Gly-Arg-pNA) was tested, and the “Quantity in nanomoles of p-nitroaniline enzymatically released from the substrate by 1 NF unit of trypsin in 1 minute” value was 19.2 nmol.
`CC(C)[C@H](NC(=O)Cc1ccccc1)C(=O)NCC(=O)N[C@@H](CCCNC(=N)N)C(=O)Nc1ccc([N+](=O)[O-])cc1` [Substrate IX, N^α -2-Phenylacetyl-Val-Gly-Arg-pNA.HCl] (PhAc-Val-Gly-Arg-pNA) was tested, and the “Quantity in nanomoles of p-nitroaniline enzymatically released from the substrate by 1 NF unit of trypsin in 1 minute” value was 17.5 nmol.
With `CC(C)[C@H](NC(=O)c1ccccc1)C(=O)N[C@@H](CO)C(=O)N[C@@H](CCCNC(=N)N)C(=O)Nc1ccc([N+](=O)[O-])cc1` [Substrate V, N^α -Bz-Val-Ser-Arg-pNA.HCl] the “Quantity in nanomoles of p-nitroaniline enzymatically released from the substrate by 1 NF unit of trypsin in 1 minute” value was 15.9 nmol.
In the case of `CC[C@H](C)[C@H](NC(=O)c1ccccc1)C(=O)N[C@@H](CO)C(=O)N[C@@H](CCCNC(=N)N)C(=O)Nc1ccc([N+](=O)[O-])cc1` [Substrate VI, N^α -Bz-Ile-Ser-Arg-pNA.HCl] (Bz-Ile-Ser-Arg-pNA), the “Quantity in nanomoles of p-nitroaniline enzymatically released from the substrate by 1 NF unit of trypsin in 1 minute” value is reported as 19.1 nmol.
In the case of `CC(C)C[C@H](NC(=O)c1ccccc1)C(=O)N[C@@H](CO)C(=O)N[C@@H](CCCNC(=N)N)C(=O)Nc1ccc([N+](=O)[O-])cc1` [Substrate VII, N^α -Bz-Leu-Ser-Arg-pNA.HCl] (Bz-Leu-Ser-Arg-pNA), the “Quantity in nanomoles of p-nitroaniline enzymatically released from the substrate by 1 NF unit of trypsin in 1 minute” value is reported as 25.7 nmol.
For `CC(C)[C@H](NC(=O)CCc1ccccc1)C(=O)NCC(=O)N[C@@H](CCCNC(=N)N)C(=O)Nc1ccc([N+](=O)[O-])cc1` [Substrate VIII, N^α -3-Phenylpropionyl-Val-Gly-Arg-pNA.HCl] (Hydrocinnamoyl-Val-Gly-Arg-pNA), the “Quantity in nanomoles of p-nitroaniline enzymatically released from the substrate by 1 NF unit of trypsin in 1 minute” value was 14.2 nmol.
For `N=C(N)NCCC[C@H](NC(=O)CNC(=O)[C@H](N)C1CCCCC1)C(=O)Nc1ccc([N+](=O)[O-])cc1` [XIII] (H-[dChg]-Gly-Arg-pNA), the “Quantity in nanomoles of p-nitroaniline enzymatically released from the substrate by 1 NF unit of trypsin in 1 minute” value was 28.8 nmol.
`N=C(N)NCCC[C@H](NC(=O)CNC(=O)[C@@H](NC(=O)c1ccccc1)C1CCCCC1)C(=O)Nc1ccc([N+](=O)[O-])cc1` [XII] (Bz-[Chg]-Gly-Arg-pNA) was tested, and the “Quantity in nanomoles of p-nitroaniline enzymatically released from the substrate by 1 NF unit of trypsin in 1 minute” value was 37.9 nmol.
In the case of `N=C(N)NCCC[C@H](NC(=O)CNC(=O)[C@H](NC(=O)c1ccccc1)C1CCCCC1)C(=O)Nc1ccc([N+](=O)[O-])cc1` [XIV] (Bz-[dChg]-Gly-Arg-pNA), the “Quantity in nanomoles of p-nitroaniline enzymatically released from the substrate by 1 NF unit of trypsin in 1 minute” value is reported as 41.9 nmol.
`N=C(N)NCCC[C@H](NC(=O)CNC(=O)[C@@H](N)C1CCCCC1)C(=O)Nc1ccc([N+](=O)[O-])cc1` [XI] (H-[Chg]-Gly-Arg-pNA) was tested, and the “Quantity in nanomoles of p-nitroaniline enzymatically released from the substrate by 1 NF unit of trypsin in 1 minute” value was 20.0 nmol.
With `CC(C)[C@@H](N)C(=O)NCC(=O)N[C@@H](CCCNC(=N)N)C(=O)Nc1ccc([N+](=O)[O-])cc1` [XVI] (H-[dV]-Gly-Arg-pNA) the “Quantity in nanomoles of p-nitroaniline enzymatically released from the substrate by 1 NF unit of trypsin in 1 minute” value was 33.3 nmol.
With `CC(C)[C@H](NC(=O)OCc1ccccc1)C(=O)NCC(=O)N[C@@H](CCCNC(=N)N)C(=O)Nc1ccc([N+](=O)[O-])cc1` [XV] (Cbz-Val-Gly-Arg-pNA) the “Quantity in nanomoles of p-nitroaniline enzymatically released from the substrate by 1 NF unit of trypsin in 1 minute” value was 41.3 nmol.
With `N=C(N)NCCC[C@H](NC(=O)CNC(=O)[C@@H](NC(=O)OCc1ccccc1)C1CCCCC1)C(=O)Nc1ccc([N+](=O)[O-])cc1` [X] (Cbz-[Chg]-Gly-Arg-pNA) the “Quantity in nanomoles of p-nitroaniline enzymatically released from the substrate by 1 NF unit of trypsin in 1 minute” value was 46.7 nmol.

The compounds below were run on kallikrein (assay: Hydrolysis of tripeptide-p-nitroanilides by kallikrein). Details: not given.
Assay type: biochemical
With `N=C(N)NCCC[C@H](NC(=O)[C@H](Cc1ccccc1)NC(=O)[C@@H]1CCCN1)C(=O)Nc1ccc([N+](=O)[O-])cc1` [A] (H-Pro-Phe-Arg-pNA) the “hydrolysis by kallikrein (in words)” value was “hydrolyzed by kallikrein”.
`CC(C)[C@H](N)C(=O)NCC(=O)N[C@@H](CCCNC(=N)N)C(=O)Nc1ccc([N+](=O)[O-])cc1` [B] (H-Val-Gly-Arg-pNA) was tested, and the “hydrolysis by kallikrein (in words)” value was “not split by kallikrein at all”.

The compounds below were run against T3, urokinase (Homo sapiens, UniProt P00749) (assay: Amidolytic splitting by urokinase and other plasminogen activators). Details: not given.
T3 construct: also urine of healthy test persons
Assay type: biochemical
With `CC(C)[C@H](N)C(=O)NCC(=O)N[C@@H](CCCNC(=N)N)C(=O)Nc1ccc([N+](=O)[O-])cc1` [B] (H-Val-Gly-Arg-pNA) the “splitting by urokinase and other plasminogen activators (in words)” value was “rapidly amidolytically split by urokinase”.
